Source: PMC13201158, “A generative artificial intelligence approach for peptide antibiotic optimization” (Nature Machine Intelligence, 2026)
No end group written: not given here.

Legend:
A. baumannii ATCC 19606 [1] = type: cell-based, Acinetobacter baumannii; details: ATCC 19606, 24 h
Text: In this study, we used the following pathogenic bacterial strains: A. baumannii ATCC 19606, E. coli ATCC 11775, E. coli AIC221 [E. coli MG1655 phnE_2::FRT (control strain for AIC 222)], E. coli AIC222 [E. coli MG1655 pmrA53 phnE_2::FRT (polymyxin resistant; colistin-resistant strain)], K. pneumoniae ATCC 13883, P. aeruginosa PAO1, P. aeruginosa PA14, Staphylococcus aureus ATCC 12600, S. aureus ATCC BAA-1556 (methicillin-resistant strain), Enterococcus faecalis ATCC 700802 (vancomycin-resistant strain), and Enterococcus faecium ATCC 700221 (vancomycin-resistant strain). Pseudomonas Isolation (P. aeruginosa strains) agar plates were exclusively used in the case of Pseudomonas species. All the other pathogens were grown in Luria–Bertani (LB) broth and on LB agar. In all the experiments, bacteria were inoculated from one-isolated colony and grown overnight (16 h) in a liquid medium at 37 °C. On the following day, inoculums were diluted 1:100 in fresh media and incubated at 37 °C to mid-logarithmic phase.
Broth microdilution assays were conducted to establish the MIC for each peptide[53]–[55]. Peptides were added to untreated polystyrene 96-well microtitre plates and serially diluted twofold in sterile water, ranging from 0 to 64 μmol l^−1. A bacterial inoculum at a concentration of 10^6 CFU ml^−1 in LB medium was then mixed in a 1:1 ratio with the peptide solution. […] Each assay was performed in three independent replicates.

A. baumannii ATCC 19606 [2] = experiment: Cytoplasmic membrane depolarization assay (DiSC3-5); type: cell-based, Acinetobacter baumannii; details: A. baumannii ATCC 19606, peptides at their MIC, 60 min; compared with polymyxin B and levofloxacin
Description: The cytoplasmic membrane depolarization assay was performed using the membrane-potential-sensitive dye DiSC3-5. A. baumannii ATCC 19606 in the mid-logarithmic phase were washed and resuspended at 0.05 OD ml^−1 (optical value at 600 nm) in HEPES buffer (pH 7.2) containing 20 mmol l^−1 of glucose and 0.1 mol l^−1 of KCl. DiSC3-5 (20 μmol l^−1) was added to the bacterial suspension (100 μl per well) for 15 min to stabilize the fluorescence, which indicates the incorporation of the dye into the bacterial membrane, and then the peptides were mixed 1:1 with the bacteria to a final concentration corresponding to their MIC values. Membrane depolarization was then followed by reading changes in the fluorescence (λex = 622 nm, λem = 670 nm) over time for 60 min. The relative fluorescence was calculated using the untreated control (buffer + bacteria + fluorescent dye) and polymyxin B (positive control) as baselines and the following equation was applied to reflect the percentage of difference between the baselines and the sample: Percentagedifference=100×(fluorescencesample−fluorescenceuntreatedcontrol)/fluorescenceuntreatedcontrol.

[3] = tested on: human embryonic kidney (HEK293T) cells; experiment: Cytotoxicity assay (MTT); type: cell-based; details: 24 h exposure, concentration range tested 4–64 μmol l^−1 (method: 8–128 μmol l^−1), three biological replicates
Description: One day before the experiment, an aliquot of 100 μl of the cells at 50,000 cells ml^−1 was seeded into each well of the cell-treated 96-well plates used in the experiment. The attached HEK293T cells were then exposed to increasing concentrations of the peptides (8–128 μmol l^−1) for 24 h. After the incubation period, we performed the 3-(4,5-dimethylthiazol-2-yl)-2,5-diphenyltetrazolium bromide tetrazolium reduction assay (MTT assay)[55]. The MTT reagent was dissolved at 0.5 mg ml^−1 in the medium without phenol red and was used to replace cell culture supernatants containing the peptides (100 μl per well). The samples were incubated for 4 h at 37 °C in a humidified atmosphere containing 5% CO2, yielding the insoluble formazan salt. The resulting salts were then resuspended in hydrochloric acid (0.04 mol l^−1) in anhydrous isopropanol and quantified by spectrophotometric measurements of absorbance at 570 nm. All assays were done as three biological replicates.

Row | Sequence | MIC, A. baumannii ATCC 19606 (A. baumannii ATCC 19606 [1]) [µmol/L] | cytoplasmic membrane depolarization (DiSC3-5 fluorescence) (A. baumannii ATCC 19606 [2]) | also measured
1 | KTLKIIRLLF [Mammuthusin-3] | 32 | – | –
2 | KRKRGLKLATALSLNNKF [Mylodonin-2] | 64 | – | –
3 | IASLHARSIARLLKRWINVHQGLGLKW [Mammuthusin-2-7] | – | highest depolarization activity within its family | –
4 | LRIKNHWIHFRVLAKALW [Hesperelin-3-9] | – | – | cytotoxicity against HEK293T cells [3]: generally non-toxic, except for hesperelin-3-9
5 | HKIKINTIKLKIKLKI [Lophiosin-1-3] | – | effective depolarizers | –
6 | RNLVRWVAGLKLKKKVIKIKVGIGRWANIK [Hydrodamin-3-9] | 8 | – | –
